Experimental data published in PubChem BioAssay (NCI).
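96-well plates; 48 h exposure; 5 concentrations. Endpoints by linear interpolation between flanking doses. Not reached: highest tested concentration assigned. TGI: total growth inhibition.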

How the values were obtained:
Assay in all cases: inhibition of tumour cell growth, NCI panel, 48 h
U251 CNS = system: U251 CNS
HT29 colon = system: HT29 colon
MOLT-4 leukemia = system: MOLT-4 leukemia
SK-OV-3 ovarian = system: SK-OV-3 ovarian
SR leukemia = system: SR leukemia
SK-MEL-28 melanoma = system: SK-MEL-28 melanoma
MALME-3M melanoma = system: MALME-3M melanoma
OVCAR-3 ovarian = system: OVCAR-3 ovarian
CAKI-1 renal = system: CAKI-1 renal
SNB-19 CNS = system: SNB-19 CNS
K-562 leukemia = system: K-562 leukemia
UACC-62 melanoma = system: UACC-62 melanoma
NCI-H522 lung = system: NCI-H522 lung
CCRF-CEM leukemia = system: CCRF-CEM leukemia
DLD-1 colon = system: DLD-1 colon
NCI-H23 lung = system: NCI-H23 lung
IGROV1 ovarian = system: IGROV1 ovarian
COLO 205 colon = system: COLO 205 colon
M14 melanoma = system: M14 melanoma
OVCAR-8 ovarian = system: OVCAR-8 ovarian
TK-10 renal = system: TK-10 renal
KM20L2 colon = system: KM20L2 colon
OVCAR-5 ovarian = system: OVCAR-5 ovarian
SF-295 CNS = system: SF-295 CNS
SK-MEL-2 melanoma = system: SK-MEL-2 melanoma
KM12 colon = system: KM12 colon
SK-MEL-5 melanoma = system: SK-MEL-5 melanoma
LXFL 529 NSCLC = system: LXFL 529 NSCLC
UO-31 renal = system: UO-31 renal
OVCAR-4 ovarian = system: OVCAR-4 ovarian
HCT-15 colon = system: HCT-15 colon
DMS 273 small cell lung = system: DMS 273 small cell lung
SN12C renal = system: SN12C renal
HCC-2998 colon = system: HCC-2998 colon
SW-620 colon = system: SW-620 colon
SNB-78 CNS = system: SNB-78 CNS
HOP-92 NSCLC = system: HOP-92 NSCLC
RXF 393 renal = system: RXF 393 renal
XF 498 CNS = system: XF 498 CNS
NCI-H226 lung = system: NCI-H226 lung
EKVX NSCLC = system: EKVX NSCLC
UACC-257 melanoma = system: UACC-257 melanoma
RPMI-8226 leukemia = system: RPMI-8226 leukemia
786-0 renal = system: 786-0 renal
M19-MEL melanoma = system: M19-MEL melanoma
HOP-18 NSCLC = system: HOP-18 NSCLC
HOP-62 NSCLC = system: HOP-62 NSCLC
HL-60(TB) leukemia = system: HL-60(TB) leukemia
SF-539 CNS = system: SF-539 CNS
A549 NSCLC = system: A549 NSCLC
HCT-116 colon = system: HCT-116 colon
DMS 114 small cell lung = system: DMS 114 small cell lung

SMILES | TGI (HT29 colon) | TGI (MOLT-4 leukemia) | TGI (SK-OV-3 ovarian) | TGI (MALME-3M melanoma) | TGI (OVCAR-3 ovarian) | TGI (CAKI-1 renal) | TGI (SNB-19 CNS) | TGI (K-562 leukemia) | TGI (UACC-62 melanoma) | TGI (CCRF-CEM leukemia) | TGI (DLD-1 colon) | TGI (IGROV1 ovarian) | TGI (COLO 205 colon) | TGI (M14 melanoma) | TGI (OVCAR-8 ovarian) | TGI (TK-10 renal) | TGI (SF-295 CNS) | TGI (SK-MEL-2 melanoma) | TGI (KM12 colon) | TGI (SK-MEL-5 melanoma) | other results
O=C(N/C(=C\c1ccc(Br)cc1)c1nc2ccccc2[nH]1)c1ccccc1 | 36.4 µM | 67.4 µM | 86.3 µM | 45.6 µM | 46.2 µM | 65.1 µM | 41.6 µM | 52.6 µM | 43.6 µM | 70.2 µM | 59.8 µM | 66.6 µM | 41.1 µM | 32.8 µM | 40 µM | 84.7 µM | 64.5 µM | 30.9 µM | 33.5 µM | 37 µM | TGI (U251 CNS): 33.5 µM; TGI (SR leukemia): 50.9 µM; TGI (SK-MEL-28 melanoma): 30.3 µM; TGI (NCI-H522 lung): 29.8 µM; TGI (NCI-H23 lung): 36 µM; TGI (KM20L2 colon): 29.8 µM; TGI (OVCAR-5 ovarian): 52 µM; TGI (LXFL 529 NSCLC): 30.9 µM; TGI (UO-31 renal): 33.7 µM; TGI (OVCAR-4 ovarian): 36.5 µM; TGI (HCT-15 colon): 39.4 µM; TGI (DMS 273 small cell lung): 58.9 µM; TGI (SN12C renal): 32.7 µM; TGI (HCC-2998 colon): 30.9 µM; TGI (SW-620 colon): 29.6 µM; TGI (SNB-78 CNS): 59.6 µM; TGI (HOP-92 NSCLC): 24.7 µM; TGI (RXF 393 renal): 30.4 µM; TGI (XF 498 CNS): 34.2 µM
CSc1nc(NC2OC(COC(C)=O)C(OC(C)=O)C(OC(C)=O)C2OC(C)=O)c(N=C(C)C(C)=O)c(=O)[nH]1 (stereo not drawn) | > 100 µM | > 100 µM | > 100 µM | > 100 µM | > 100 µM | > 100 µM | > 100 µM | > 100 µM | > 100 µM | > 100 µM | > 100 µM | > 100 µM | > 100 µM | > 100 µM | > 100 µM | > 100 µM | > 100 µM | > 100 µM | > 100 µM | > 100 µM | TGI (NCI-H226 lung): > 100 µM; TGI (EKVX NSCLC): > 100 µM; TGI (UACC-257 melanoma): > 100 µM; TGI (RPMI-8226 leukemia): > 100 µM; TGI (786-0 renal): > 100 µM; TGI (M19-MEL melanoma): > 100 µM; TGI (HOP-18 NSCLC): > 100 µM; TGI (HOP-62 NSCLC): > 100 µM; TGI (HL-60(TB) leukemia): > 100 µM; TGI (SF-539 CNS): > 100 µM; TGI (UO-31 renal): > 100 µM; TGI (OVCAR-4 ovarian): > 100 µM; TGI (A549 NSCLC): > 100 µM; TGI (HCC-2998 colon): > 100 µM; TGI (SW-620 colon): > 100 µM; TGI (HCT-116 colon): > 100 µM; TGI (DMS 114 small cell lung): > 100 µM; TGI (SNB-78 CNS): > 100 µM; TGI (HOP-92 NSCLC): > 100 µM
